Source: patent US7776858B2, “Methods of treatment of chronic pain using eszopiclone” (Sepracor Inc., priority 2004, dated 2010)

Tests used:
[1] = tested on: conscious dogs; experiment: Dose escalation safety study, cardiovascular and respiratory parameters after acute intravenous administration; conditions: acute intravenous, 3, 5 and 12 mg/kg
Description: To establish the safety of eszopiclone, a dose escalation study was carried out. Cardiovascular and respiratory parameters were evaluated in conscious dogs following acute intravenous administration of (R)-, (S)- or racemic zopiclone at three doses (3, 5 and 12 mg/kg).

[2] = tested on: mice; experiment: Antimuscarinic activity in vivo: mydriasis; conditions: maximum dose 100 mg/kg, p.o.
Description: (§1) Eszopiclone was evaluated for antimuscarinic activity in vivo.

[3] = tested on: mice; experiment: Antagonism of oxotremorine induced salivation; type: in vivo; conditions: doses up to 300 mg/kg, p.o.
Description: as §1

[4] = tested on: benzodiazepine receptor complex; conditions: cited from earlier work

## CN1CCN(C(=O)OC2c3nccnc3C(=O)N2c2ccc(Cl)cn2)CC1 (racemic) [racemic zopiclone, zopiclone]
[1]
  Blood gases and blood chemistries (pH, pCO2, pO2, hematocrit, and lactate): remained unaffected
  cardiotoxicity by electrocardiogram (ECG): No evidence of cardiotoxicity
  effect on blood pressure: dose dependent, transient decreases
  effect on heart rate: compensatory increase
[2]
  mydriasis: did not produce mydriasis
[3]
  antagonism of oxotremorine induced salivation: neither (R)-, (S)-, nor racemic zopiclone significantly antagonized
[4]
  binding to the benzodiazepine receptor complex: binds to the benzodiazepine receptor complex
